Assay results as given in patent US20240239861A1, “GLUCAGON-RECEPTOR SELECTIVE POLYPEPTIDES AND METHODS OF USE THEREOF” (i2O Therapeutics, Inc., priority 2016, published 2024).
Read-outs that look alike come from different tables or passages of the source. Where a SMILES comes first, the peptide text is derived from it. [ ]: non-standard residue; d: D form. Aib = CC(C)(N)C(=O)O

Key:
human GCGR = human GCGR (Homo sapiens, UniProt P47871); test: Peptide-receptor mediated cAMP accumulation (LANCE Ultra cAMP) in CHO-K1 cells transfected with human GCGR; assay type: cell-based
human GLP-1R = human GLP-1R (Homo sapiens, UniProt P43220); test: Peptide-receptor mediated cAMP accumulation (LANCE Ultra cAMP) in CHO-K1 cells transfected with human GLP-1R; assay type: cell-based
[1] = hGLP1 pEC50 (cAMP mean (n = 3): 11 point curve starting at 1 nM, Table 3)

Sequence of human GLP-1R (P43220 24-463): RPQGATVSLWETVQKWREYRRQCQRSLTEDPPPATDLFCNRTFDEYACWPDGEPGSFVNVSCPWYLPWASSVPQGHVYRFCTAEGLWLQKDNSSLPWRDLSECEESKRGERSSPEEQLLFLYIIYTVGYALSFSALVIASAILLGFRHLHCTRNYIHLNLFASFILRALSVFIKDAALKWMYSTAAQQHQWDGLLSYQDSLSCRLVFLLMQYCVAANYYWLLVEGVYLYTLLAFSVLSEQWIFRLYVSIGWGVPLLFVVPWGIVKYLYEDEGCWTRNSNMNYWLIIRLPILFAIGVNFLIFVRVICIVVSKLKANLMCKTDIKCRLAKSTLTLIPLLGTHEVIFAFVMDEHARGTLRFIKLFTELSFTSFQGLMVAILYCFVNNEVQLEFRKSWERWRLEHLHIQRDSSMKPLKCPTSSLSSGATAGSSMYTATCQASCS
Sequence of human GCGR (P47871 26-477): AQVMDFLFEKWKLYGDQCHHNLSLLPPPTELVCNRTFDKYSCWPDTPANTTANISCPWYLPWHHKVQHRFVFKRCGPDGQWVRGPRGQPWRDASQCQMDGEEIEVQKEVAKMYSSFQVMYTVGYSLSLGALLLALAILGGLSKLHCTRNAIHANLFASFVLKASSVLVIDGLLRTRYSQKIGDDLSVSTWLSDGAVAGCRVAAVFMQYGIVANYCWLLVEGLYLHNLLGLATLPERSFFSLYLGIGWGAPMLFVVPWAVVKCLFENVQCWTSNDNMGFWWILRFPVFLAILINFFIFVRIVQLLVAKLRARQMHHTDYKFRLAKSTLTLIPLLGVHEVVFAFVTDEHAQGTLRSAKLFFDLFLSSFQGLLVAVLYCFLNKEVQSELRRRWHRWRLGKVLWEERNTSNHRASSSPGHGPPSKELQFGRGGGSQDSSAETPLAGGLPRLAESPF

SMILES	EC50 (human GCGR; Table 3) [nM]	EC50 (human GLP-1R; [1]) [nM]	EC50 (human GCGR; read-out: GluR pEC50 (converted)) [nM]	EC50 (human GLP-1R; Table 7, GLP-1R, read-out: GLP-1R pEC50 (converted)) [nM]
CC(C)C[C@H](NC(=O)[C@H](Cc1ccc(O)cc1)NC(=O)[C@H](CCCCN)NC(=O)[C@H](CO)NC(=O)[C@H](Cc1ccc(O)cc1)NC(=O)[C@H](CC(=O)O)NC(=O)[C@H](CO)NC(=O)[C@@H](NC(=O)[C@H](Cc1ccccc1)NC(=O)[C@@H](NC(=O)CNC(=O)[C@H](Cc1c[nH]cn1)NC(=O)[C@@H](NC(=O)[C@@H](N)Cc1ccc(O)cc1)[C@@H](C)O)[C@@H](C)O)[C@@H](C)O)C(=O)N[C@@H](CC(=O)O)C(=O)N[C@@H](CO)C(=O)N[C@@H](C)C(=O)N[C@@H](CCCNC(=N)N)C(=O)N[C@@H](C)C(=O)N[C@@H](CCC(N)=O)C(=O)N[C@@H](CCC(=O)O)C(=O)N[C@@H](Cc1ccccc1)C(=O)N[C@H](C(=O)N[C@@H](CCCCN)C(=O)N[C@@H](Cc1c[nH]c2ccccc12)C(=O)N[C@@H](CC(C)C)C(=O)N[C@@H](CCC(=O)O)C(=O)N[C@@H](CC(=O)O)C(=O)N[C@@H](CCC(=O)O)C(=O)N1CCC[C@H]1C(=O)N[C@@H](CO)C(=O)N[C@@H](CO)C(=O)NCC(=O)N[C@@H](C)C(=O)N1CCC[C@H]1C(=O)N1CCC[C@H]1C(=O)N1CCC[C@H]1C(=O)N[C@@H](CO)C(=O)O)C(C)C [Compound A63] (H-YTHGTFTSDYSKYLDSARAQEFVKWLEDEPSSGAPPPS-OH)	0.0398	> 1		
CCCCCCCCCCCCCCCC(=O)N[C@@H](CCC(=O)NCCCC[C@H](NC(=O)[C@H](CC(=O)O)NC(=O)[C@H](CC(C)C)NC(=O)[C@H](Cc1ccc(O)cc1)NC(=O)[C@H](CCCCN)NC(=O)[C@H](CO)NC(=O)[C@H](Cc1ccc(O)cc1)NC(=O)[C@H](CC(=O)O)NC(=O)[C@H](CO)NC(=O)[C@@H](NC(=O)[C@H](Cc1ccccc1)NC(=O)[C@@H](NC(=O)CNC(=O)[C@H](Cc1c[nH]cn1)NC(=O)[C@H](CO)NC(=O)[C@@H](N)Cc1ccc(O)cc1)[C@@H](C)O)[C@@H](C)O)C(=O)N[C@@H](CCCCN)C(=O)N[C@@H](CO)C(=O)N[C@@H](C)C(=O)N[C@@H](CCC(N)=O)C(=O)N[C@@H](CCC(=O)O)C(=O)N[C@@H](Cc1ccccc1)C(=O)N[C@H](C(=O)NC(C)(C)C(=O)N[C@@H](Cc1c[nH]c2ccccc12)C(=O)N[C@@H](CC(C)C)C(=O)N[C@@H](CCC(=O)O)C(=O)N[C@@H](CC(=O)O)C(=O)N[C@@H](CCC(=O)O)C(=O)N1CCC[C@H]1C(=O)N[C@@H](CO)C(=O)N[C@@H](CO)C(=O)NCC(=O)N[C@@H](C)C(=O)N1CCC[C@H]1C(=O)N1CCC[C@H]1C(=O)N1CCC[C@H]1C(=O)N[C@@H](CO)C(=O)O)C(C)C)C(=O)O [Compound B11]			0.0501	501
CC(C)C[C@H](NC(=O)[C@H](Cc1ccc(O)cc1)NC(=O)[C@H](CCCCN)NC(=O)[C@H](CO)NC(=O)[C@H](Cc1ccc(O)cc1)NC(=O)[C@H](CC(=O)O)NC(=O)[C@H](CO)NC(=O)[C@@H](NC(=O)[C@H](Cc1ccccc1)NC(=O)[C@@H](NC(=O)CNC(=O)[C@H](Cc1c[nH]cn1)NC(=O)[C@H](CO)NC(=O)[C@@H](N)Cc1ccc(O)cc1)[C@@H](C)O)[C@@H](C)O)C(=O)N[C@@H](CC(=O)O)C(=O)NC(C)(C)C(=O)N[C@@H](C)C(=O)N[C@@H](CCCNC(=N)N)C(=O)N[C@@H](C)C(=O)N[C@@H](CCC(N)=O)C(=O)N[C@@H](CCC(=O)O)C(=O)N[C@@H](Cc1ccccc1)C(=O)N[C@H](C(=O)NC(C)(C)C(=O)N[C@@H](Cc1c[nH]c2ccccc12)C(=O)N[C@@H](CC(C)C)C(=O)N[C@@H](CCC(=O)O)C(=O)N[C@@H](CC(=O)O)C(=O)N[C@@H](CCC(=O)O)C(=O)N1CCC[C@H]1C(=O)N[C@@H](CCCCN)C(=O)N[C@@H](CO)C(=O)N[C@@H](CCCCN)C(=O)N[C@@H](CO)C(=O)N1CCC[C@H]1C(=O)N1CCC[C@H]1C(=O)N1CCC[C@H]1C(=O)N[C@@H](CO)C(N)=O)C(C)C [Compound A67] (H-YSHGTFTSDYSKYLD[Aib]ARAQEFV[Aib]WLEDEPKSKSPPPS-NH2; N-terminus assumed)	0.0126	> 1		
CC(C)C[C@H](NC(=O)[C@H](Cc1c[nH]c2ccccc12)NC(=O)[C@H](CCCCN)NC(=O)[C@H](CO)NC(=O)[C@H](Cc1c[nH]cn1)NC(=O)[C@H](CC(=O)O)NC(=O)[C@H](CO)NC(=O)[C@@H](NC(=O)[C@H](Cc1ccccc1)NC(=O)[C@@H](NC(=O)CNC(=O)[C@H](Cc1c[nH]cn1)NC(=O)[C@H](CO)NC(=O)[C@@H](N)Cc1ccc(O)cc1)[C@@H](C)O)[C@@H](C)O)C(=O)N[C@@H](CC(=O)O)C(=O)NC(C)(C)C(=O)N[C@@H](C)C(=O)N[C@@H](CCCNC(=N)N)C(=O)N[C@@H](C)C(=O)N[C@@H](CCC(N)=O)C(=O)N[C@@H](CCC(=O)O)C(=O)N[C@@H](Cc1ccccc1)C(=O)N[C@H](C(=O)NC(C)(C)C(=O)N[C@@H](Cc1c[nH]c2ccccc12)C(=O)N[C@@H](CC(C)C)C(=O)N[C@@H](CCC(=O)O)C(=O)N[C@@H](CC(=O)O)C(=O)N[C@@H](CCC(=O)O)C(=O)N1CCC[C@H]1C(=O)N[C@@H](CO)C(=O)N[C@@H](CO)C(=O)NCC(=O)N[C@@H](C)C(=O)N1CCC[C@H]1C(=O)N1CCC[C@H]1C(=O)N1CCC[C@H]1C(=O)N[C@@H](CO)C(=O)O)C(C)C [Compound A36] (H-YSHGTFTSDHSKWLD[Aib]ARAQEFV[Aib]WLEDEPSSGAPPPS-OH; N-terminus assumed)	0.0631	> 1		
CC(C)C[C@H](NC(=O)[C@H](Cc1ccc(O)cc1)NC(=O)[C@H](CCCCN)NC(=O)[C@H](CO)NC(=O)[C@H](Cc1ccc(O)cc1)NC(=O)[C@H](CC(=O)O)NC(=O)[C@H](CO)NC(=O)[C@@H](NC(=O)[C@H](Cc1ccccc1)NC(=O)[C@@H](NC(=O)CNC(=O)[C@H](Cc1c[nH]cn1)NC(=O)[C@@H](NC(=O)[C@@H](N)Cc1ccc(O)cc1)[C@@H](C)O)[C@@H](C)O)[C@@H](C)O)C(=O)N[C@@H](CC(=O)O)C(=O)NC(C)(C)C(=O)N[C@@H](CCCCN)C(=O)N[C@@H](CCCNC(=N)N)C(=O)N[C@@H](C)C(=O)N[C@@H](CCC(N)=O)C(=O)N[C@@H](CCC(=O)O)C(=O)N[C@@H](Cc1ccccc1)C(=O)N[C@H](C(=O)NC(C)(C)C(=O)N[C@@H](Cc1c[nH]c2ccccc12)C(=O)N[C@@H](CC(C)C)C(=O)N[C@@H](CCC(=O)O)C(=O)N[C@@H](CC(=O)O)C(=O)N[C@@H](CCC(=O)O)C(=O)N1CCC[C@H]1C(=O)N[C@@H](CO)C(=O)N[C@@H](CO)C(=O)NCC(=O)N[C@@H](C)C(=O)N1CCC[C@H]1C(=O)N1CCC[C@H]1C(=O)N1CCC[C@H]1C(=O)N[C@@H](CO)C(=O)O)C(C)C [Compound A62] (H-YTHGTFTSDYSKYLD[Aib]KRAQEFV[Aib]WLEDEPSSGAPPPS-OH; N-terminus assumed)	0.00316	> 1		
